Where two headings read alike, the source gives them in different places.
Columns and labels:
site IQf in complex I = assay: Amplex UltraRed assay of superoxide/hydrogen peroxide production during forward electron transport (glycerol 3-phosphate plus 50 µM glutamate plus malate); format: biochemical, rat
Procedure: Cuvette- and plate-based assays of superoxide/hydrogen peroxide production during RET using 12.5 mM G3P (or during FET using 12.5 mM G3P, 50 µM glutamate plus 50 µM malate) as substrate were conducted at 37°C as described [45] using 0.2 mg of mitochondrial protein/ml in 3 ml (plastic cuvettes, Varian Cary Eclipse spectrofluorometer (Ex 560 nm/Em 590 nm)) or 0.2 mg mitochondrial protein/ml, 0.01 mg/well (Pherastar FS (BMG) fluorescence microplate reader, Ex 540 nm/Em 590 nm), in KHEB medium (120 mM KCl, 3 mM HEPES, 1 mM EGTA, 0.3% w/v bovine serum albumin, pH 7.4) containing 25 U/ml SOD1, 25 µM Amplex Ultrared, and 5 U/ml HRP, plus dimethyl sulfoxide (DMSO) or treatments as indicated.

Fa2N-4 cells [1] = assay: NAD(P)H autofluorescence two-photon imaging, single-cell analysis; format: cell-based
Procedure: Subcellular resolution micrographs of NAD(P)H autofluorescence were recorded using an upright Zeiss LSM 7MP multiphoton microscope, equipped with a Chameleon Vision II mode-locked laser set to 710 nm (1–1.5% of the 745 mW output power was used) and W Plan-Apochromat 20×/1.0 DIC M27 75 mm dipping water immersion objective lens and detection of emission between 420 and 480 nm. 1024 × 1024 pixels images (0.2 µm/pixel) were recorded at maximal scan speed and 8× frame averaging. Time courses of two frames, one before and one after the addition of rotenone (2 µM), FCCP (4 µM) or vehicle (DMSO 1 : 2000) were recorded using the Zeiss Multi Time Series macro. The cell monolayer was auto-focused at one x,y-position, and four other positions were imaged for analysis in each dish. Recordings were analysed in Image Analyst by rigid image registration, background subtraction and ROI-based intensity measurement. Unbiased single-cell ROIs were generated in using Cellpose 2.0 [48] with the ‘cyto2' neural network. Histograms were generated in Mathematica.

[2] = system: isolated rat skeletal muscle mitochondria; format: biochemical
Procedure: Mitochondria were immobilised in coverglass-bottomed 96-well microplates (Greiner Sensoplate) by centrifugation for 15 min at 1000 g in KHEB medium at 4°C. The microplate was warmed in the 37°C heated environment chamber of a Nikon Eclipse Ti-PFS fully motorised wide-field fluorescence microscope equipped with a Lambda 821 LED light source with Lambda 10-3 emission filter wheel and Andor iXon Life 888 EMCCD camera, controlled by NIS Elements 5.20. TMRM (100 nM) was added to the wells, and in successive additions substrates were added without changing the TMRM concentration. TMRM was imaged using a Super Fluor 40× NA1.3 oil lens, a 586/20 nm excitation filter on a 560 nm LED, a 593 nm dichroic mirror, and a 641/75 nm emission filter capturing the centre 512 × 512 pixels area of the camera with no binning and with 1.5× optical zoom (0.17 µm/pixel resolution). Multiple (typically 25) view fields were recorded in one to three wells for 3 time points per substrate condition. In some experiments, TMRM imaging was followed by recording frames of NAD(P)H autofluorescence in the same view fields using a 340 nm LED, 414 nm dichroic mirror and 460/80 nm emission filter. The first autofluorescence frame matched the substrate condition of the last TMRM frame and then the recording of three more frames followed the application of rotenone (4 µM) or FCCP (4 µM) by 1 min delay. Recordings were analysed in Image Analyst MKII 4.2.1 (Image Analyst Software, Novato, CA) by performing image registration, background subtraction and ROI-based intensity measurement. Background was subtracted first as a blank image and then frame-by-frame using the ‘Mean of pixels below percentile of max projection (dilated mask)' method. Single-mitochondria ROIs were generated by morphological segmentation using a modification of the ‘Mitochondria : cell volume fractionator (basic)' standard pipeline. ΔψM was calculated using the Nernst equation. Because fluorescence was small in the absence of substrates, polarisation by G + M was calculated from TMRM fluorescence intensities (FTMRM) by comparison to succinate as 61 mV × log(FTMRM_G + M/FTMRM_succinate), which expresses how much less polarisation was provided by G + M than succinate, in millivolts. Polarisation by G3P was calculated by comparison to G + M as 61 mV × log(FTMRM_G3P/FTMRM_G + M), which expresses the millivolts hyperpolarisation when G3P is added in the presence of G + M. Changes in NAD(P)H autofluorescence (ΔNADH) were expressed as the observed fluorescence intensity change normalised to the population mean fluorescence before rotenone (or FCCP) addition. […] This was then converted to log2-fold changes to provide symmetrical distributions. Scatter plots were generated and analysed in Mathematica 13 (Wolfram Research).

[3] = system: rat skeletal muscle mitochondria; assay: Respiration of isolated mitochondria on glycerol 3-phosphate (Seahorse extracellular flux analyzer); format: biochemical; conditions: 1–10 µM; in the presence of ADP; n = 2–3
Procedure: Mitochondrial respiration was assayed at 37°C using an Agilent Seahorse XFe-24 as described previously, using 12.5 mM G3P as substrate.

Fa2N-4 cells [4] = assay: Subcellular analysis of NAD(P)H autofluorescence (mitochondria within cells); format: cell-based; conditions: rotenone challenge
Procedure: The NAD(P)H autofluorescence multiphoton time courses described above were de-noised by Wiener filtering, cropped based on the Cellpose ROIs resulting in 256 × 256 pixels images of single cells, and surrounding structures were masked in Image Analyst MKII. Then, to compensate for the motility of mitochondria during the time courses, B-spline-based deformable image registration was performed in Elastix 5.0.1 [49]. Image registration was quality controlled subjectively plus by calculating Pearson’s cross-correlation coefficient between before- and after-rotenone frames, and cells with a value lower than 0.6 were discarded. The pixel-by-pixel ratio of after- over before-treatment frames was calculated, masked by mitochondrial profiles generated by Otsu’s threshold method (with a logical OR of before- and after-frames), and log2 of the ratios was taken for all pixels. Image histograms were saved to Excel and analysed in Mathematica using a maximum log-likelihood method for fitting the binned log2-fold intensity values with normal distribution(s). Mock treatments were fitted well with a single, symmetric distribution. We attribute this change of pixel intensities between the consecutive frames of the time course to motility artefacts and noise. The distribution of log2-fold pixel intensity changes for rotenone-treated cells was wider, and therefore we coarsely modelled it as sum of two normal distributions (rotenone-responsive and unresponsive mitochondria, with σ matching that of the mock-treatment modelling motility and noise effects). […] This analysis was repeated for individual single cells (total 185 in three experiments).

[5] = plate-reader titrations, IQf versus IQr, 2 µM atpenin A5, 10 µM S3QEL3
[6] = rotenone 4 µM challenge, 50 µM G + M plus 12.5 mM G3P

SMILES: N#CC(C#N)=NNc1ccc(OC(F)(F)F)cc1 [FCCP]
- Sensitivity of superoxide/hydrogen peroxide production from site IQf compared with site IQr (site IQf in complex I): equally sensitive
- Cells responding with a decrease in NAD(P)H autofluorescence (Fa2N-4 cells [1]; FCCP 4 µM): All cells
- Mitochondria responding with significant oxidation of NADH [2]: 85 ± 2%

SMILES: COc1[nH]c(=O)c(C(=O)[C@@H](C)C[C@H](C)[C@@H](Cl)CCl)c(O)c1OC [atpenin A5]
- Effect on respiration on 12.5 mM G3P [3]: no significant effect

SMILES: CO[C@@H]1C[C@@H](C[C@H]2CC[C@H](C)[C@H]([C@@H](C)C(=O)O)O2)O[C@]2(O[C@](C)([C@H]3CC[C@@](C)([C@@H]4O[C@@H]([C@H]5O[C@@](O)(CO)[C@H](C)C[C@@H]5C)C[C@@H]4C)O3)C[C@H]2C)[C@@H]1C [nigericin]
- Sensitivity of superoxide/hydrogen peroxide production from site IQf compared with site IQr (site IQf in complex I; [5]): equally sensitive

SMILES: C/C=C(\C)[C@H](O)[C@H](C)/C=C(C)/C=C/C/C(C)=C/Cc1nc(OC)c(OC)c(O)c1C [piericidin A]
- Superoxide/hydrogen peroxide production by site IQf at highest concentration (site IQf in complex I; 10 µM, plate-reader): IQf activity reappeared
- Sensitivity of superoxide/hydrogen peroxide production from site IQf compared with site IQr (site IQf in complex I; [5]): equally sensitive

SMILES: C=C(C)[C@H]1Cc2c(ccc3c2O[C@@H]2COc4cc(OC)c(OC)cc4[C@@H]2C3=O)O1 [rotenone]
- Cellular mitochondria oxidising on challenge (excess pixel count) (Fa2N-4 cells [4]; n = 3): 0.5 ± 0.1%
- Mitochondria in cells estimated to respond poorly or not at all (Fa2N-4 cells [4]; n = 3 experiments, 185 cells): 26 ± 3%
- Mitochondria in cells that responded with increased fluorescence (Fa2N-4 cells [4]; n = 3 experiments, 185 cells): 74 ± 3%
- Mean increase in NAD(P)H fluorescence intensity of responding mitochondria (Fa2N-4 cells [4]; responder population): 50 ± 10%
- Sensitivity of superoxide/hydrogen peroxide production from site IQf compared with site IQr (site IQf in complex I; [5]): equally sensitive
- Cells responding with an increase in NAD(P)H autofluorescence (Fa2N-4 cells [1]; rotenone challenge (4 µM in legend, 2 µM in methods), n = 4): 97 ± 4%
- Mitochondria responding by significantly increasing the reduction of their NADH/NAD+ pool [2, 6]: 65%
- Mitochondria that did not change NAD(P)H fluorescence significantly [2, 6]: 30 ± 9%
- Mitochondria responding by significant oxidation of NADH to NAD+ ([2]; rotenone 4 µM challenge, 50 µM G + M plus 12.5 mM G3P, n = 4): 4.2 ± 1.1%

Reference: publication PMC10212513, “Site IQ in mitochondrial complex I generates S1QEL-sensitive superoxide/hydrogen peroxide in both the reverse and forward reactions” (Biochemical Journal, 2023)
